Data from US20230330093A1, “APPLICATION OF NITROGEN-CONTAINING SATURATED HETEROCYCLIC COMPOUND” (SHANGHAI PHARMACEUTICALS HOLDING CO., LTD., priority 2020, published 2023).

Test system: cynomolgus monkeys
Assay: 4-week safety study: hematology and coagulation
Format: in vivo
Experimental: […] (1) Hematological and coagulation index examination were performed using a Bayer ADVIA2120 (Germany) and a Sysmex CA-1500 (Japan). (2) The serum biochemical examination was assessed using a HITACHI 7080 automated analyzer (Japan) and an Easylyte PLUS electrolyte analyzer (MEDICA, America). (3) The 24-h pooled urine of each animal was collected by a tray under each cage. Urinalysis was carried out using Uritest-300 (China). (4) The 24-h pooled faeces of each monkey were collected by a tray under each cage. Fecal occult blood was detected. (5) ACCESS 2 Chemiluminescence immunoassay was used for myocardial troponin (TropI, non-GLP) test.

For COC(=O)NCCCn1nc([C@@H](C)N(C(=O)[C@H]2CNCCO2)C2CC2)c2ccc(C)nc21 [compound of Formula I], which APTT (Female, 20 mg/kg, d0) is on record?
The APTT was 16.7 ± 0.8 s.

And the Fbg (Female, 20 mg/kg, d0)?
The Fbg was 2.0 ± 0.3 g/L.

And the LYMPH (Female, 20 mg/kg, d0)?
Its LYMPH is 51.3 ± 18.0%.

And the NEUT (Female, 20 mg/kg, d0)?
The NEUT was 42.5 ± 18.8%.

What about the WBC (Female, 20 mg/kg, d0) of the same molecule?
The WBC was 15.3 ± 3.6 ×10^9 · L^−1.

And the APTT (Female, 20 mg/kg, d14)?
Its APTT is 15.9 ± 1.0 s.

And the Fbg (Female, 20 mg/kg, d14)?
Its Fbg is 2.9 ± 0.9 g/L.

What about the LYMPH (Female, 20 mg/kg, d14) of the same molecule?
The LYMPH was 40.8 ± 11.3%.

What about the NEUT (Female, 20 mg/kg, d14) of the same molecule?
The NEUT was 52.5 ± 10.4%.

And the WBC (Female, 20 mg/kg, d14)?
Its WBC is 16.0 ± 3.9 ×10^9 · L^−1.

And the APTT (Female, 20 mg/kg, d26)?
The APTT was 18.3 ± 1.4 s.

And the Fbg (Female, 20 mg/kg, d26)?
The Fbg was 2.8 ± 0.9 g/L.

And the LYMPH (Female, 20 mg/kg, d26)?
The LYMPH was 33.1 ± 12.8 %.

What about the NEUT (Female, 20 mg/kg, d26) of the same molecule?
Its NEUT is 61.4 ± 13.2 %.

What about the WBC (Female, 20 mg/kg, d26) of the same molecule?
Its WBC is 19.1 ± 4.0 ×10^9 · L^−1.

And the APTT (Female, 20 mg/kg, d 56)?
Its APTT is 16.4 ± 1.1 s.

What about the Fbg (Female, 20 mg/kg, d 56) of the same molecule?
The Fbg was 1.7 ± 0.5 g/L.

And the LYMPH (Female, 20 mg/kg, d 56)?
The LYMPH was 53.1 ± 7.4%.

And the NEUT (Female, 20 mg/kg, d 56)?
The NEUT was 38.1 ± 7.1%.

And the WBC (Female, 20 mg/kg, d 56)?
Its WBC is 12.4 ± 1.6 ×10^9 · L^−1.

And the APTT (Female, 100 mg/kg, d0)?
Its APTT is 15.0 ± 1.6 s.

What about the Fbg (Female, 100 mg/kg, d0) of the same molecule?
The Fbg was 1.9 ± 0.4 g/L.

And the LYMPH (Female, 100 mg/kg, d0)?
Its LYMPH is 44.0 ± 16.5%.

And the NEUT (Female, 100 mg/kg, d0)?
Its NEUT is 50.5 ± 17.3%.

What about the WBC (Female, 100 mg/kg, d0) of the same molecule?
The WBC was 10.9 ± 2.9 ×10^9 · L^−1.

And the APTT (Female, 100 mg/kg, d14)?
The APTT was 14.5 ± 0.9 s.

What about the Fbg (Female, 100 mg/kg, d14) of the same molecule?
The Fbg was 2.5 ± 0.4 g/L.

And the LYMPH (Female, 100 mg/kg, d14)?
The LYMPH was 33.2 ± 4.4 %.

What about the NEUT (Female, 100 mg/kg, d14) of the same molecule?
Its NEUT is 59.5 ± 5.3 %.

And the WBC (Female, 100 mg/kg, d14)?
Its WBC is 14.0 ± 4.0 ×10^9 · L^−1.

And the APTT (Female, 100 mg/kg, d26)?
Its APTT is 19.7 ± 2.2 s.

And the Fbg (Female, 100 mg/kg, d26)?
The Fbg was 3.5 ± 0.8 g/L.

What about the LYMPH (Female, 100 mg/kg, d26) of the same molecule?
Its LYMPH is 30.0 ± 6.8 %.

What about the NEUT (Female, 100 mg/kg, d26) of the same molecule?
The NEUT was 63.2 ± 6.4 %.

And the WBC (Female, 100 mg/kg, d26)?
Its WBC is 15.9 ± 6.2 ×10^9 · L^−1.

What about the APTT (Female, 100 mg/kg, d 56) of the same molecule?
The APTT was 15.8 ± 1.5 s.

And the Fbg (Female, 100 mg/kg, d 56)?
The Fbg was 2.1 ± 0.3 g/L.

What about the LYMPH (Female, 100 mg/kg, d 56) of the same molecule?
Its LYMPH is 48.7 ± 0.6%.

What about the NEUT (Female, 100 mg/kg, d 56) of the same molecule?
The NEUT was 45.2 ± 2.3%.

And the WBC (Female, 100 mg/kg, d 56)?
Its WBC is 9.9 ± 1.0 ×10^9 · L^−1.

What about the APTT (Female, 450 mg/kg, d0) of the same molecule?
The APTT was 16.9 ± 1.4 s.

And the Fbg (Female, 450 mg/kg, d0)?
Its Fbg is 1.8 ± 0.3 g/L.

What about the LYMPH (Female, 450 mg/kg, d0) of the same molecule?
The LYMPH was 51.8 ± 12.2%.

And the NEUT (Female, 450 mg/kg, d0)?
The NEUT was 43.3 ± 12.3%.

What about the WBC (Female, 450 mg/kg, d0) of the same molecule?
Its WBC is 14.4 ± 1.7 ×10^9 · L^−1.

And the APTT (Female, 450 mg/kg, d14)?
Its APTT is 18.6 ± 0.8 s.

And the Fbg (Female, 450 mg/kg, d14)?
The Fbg was 3.9 ± 0.8 g/L.

What about the LYMPH (Female, 450 mg/kg, d14) of the same molecule?
Its LYMPH is 30.1 ± 14.3 %.

And the NEUT (Female, 450 mg/kg, d14)?
The NEUT was 63.5 ± 15.2 %.

And the WBC (Female, 450 mg/kg, d14)?
Its WBC is 16.9 ± 7.8 ×10^9 · L^−1.

And the APTT (Female, 450 mg/kg, d26)?
Its APTT is 20.1 ± 3.1 s.

And the Fbg (Female, 450 mg/kg, d26)?
Its Fbg is 4.2 ± 0.7 g/L.

What about the LYMPH (Female, 450 mg/kg, d26) of the same molecule?
The LYMPH was 26.9 ± 8.9 %.

What about the NEUT (Female, 450 mg/kg, d26) of the same molecule?
Its NEUT is 67.5 ± 9.2 %.

What about the WBC (Female, 450 mg/kg, d26) of the same molecule?
The WBC was 18.1 ± 3.7 ×10^9 · L^−1.

And the APTT (Female, 450 mg/kg, d 56)?
Its APTT is 18.0 ± 3.5 s.

What about the Fbg (Female, 450 mg/kg, d 56) of the same molecule?
The Fbg was 1.4 ± 0.0 g/L.

And the LYMPH (Female, 450 mg/kg, d 56)?
The LYMPH was 53.3 ± 0.3%.

What about the NEUT (Female, 450 mg/kg, d 56) of the same molecule?
Its NEUT is 42.3 ± 0.6%.

And the WBC (Female, 450 mg/kg, d 56)?
Its WBC is 14.0 ± 4.9 ×10^9 · L^−1.

What about the APTT (Male, 20 mg/kg, d0) of the same molecule?
Its APTT is 16.4 ± 1.1 s.

And the Fbg (Male, 20 mg/kg, d0)?
The Fbg was 2.1 ± 0.6 g/L.

What about the LYMPH (Male, 20 mg/kg, d0) of the same molecule?
Its LYMPH is 55.3 ± 14.6%.

What about the NEUT (Male, 20 mg/kg, d0) of the same molecule?
The NEUT was 39.9 ± 14.6%.
